Experimental data reported in patent publication US20210025895A1, “CANCER SERUM BIOMARKERS AND METHODS OF USE THEREOF” (X4 Pharmaceuticals, Inc., priority 2018, published 2021).
Several values for one entry are separate records, joined by “and”; a condition that tells them apart may be missing. Equal entries are not always repeated.

Tests used:
CXCL9 = experiment: Serum CXCL9 in melanoma patients, Multi-Analyte Profile Platform (Myriad RBM); format: in vivo, human; conditions: individual melanoma patients
Protocol: (§1) Subjects were first screened and evaluated for baseline measurements.
(§2) Prior to treatment two (2) baseline serum samples were collected from each patient.
(§3) Three (3) weeks after treatment was initiated, additional serum samples were collected from each patient. Additional biopsy samples were also collected unless the attending physician recommended against the biopsy. Following sample collection, subjects were administered the first of two doses of pembrolizumab (2 mg/kg, i.v.).
(§4) Three (3) weeks after the administration of the first dose of pembrolizumab (six weeks from beginning of treatment) additional serum samples were collected from each patient. Subjects then administered a second dose of pemrolizumab (2 mg/kg, i.v.).
(§5) Three (3) weeks after the administration of the second dose of pembrolizumab (nine weeks from the beginning of treatment) additional serum samples were collected. Additional biopsy samples were also collected unless the attending physician recommended against the biopsy.
(§6) Five (5) additional patients were evaluated. Baselines in Tables 1 and 2 represent measurements taken on Day 1. Baselines in Tables 1a and 2a represent an average of two measurements taken at screening and on Day 1.

CXCL10 = experiment: Serum CXCL10 in melanoma patients, Multi-Analyte Profile Platform (Myriad RBM); format: in vivo, human; conditions: individual melanoma patients
Protocol: as §1, §2, §3, §4, §5, §6

[1] = tested on: serum cytokines and chemokines; experiment: Serum chemokines, cytokines and growth factors in melanoma patients, change vs baseline; format: in vivo, human
Protocol: as §1, §2, §3, §6

Solubility of X4P-001 = format: physicochemical
[2] = tested on: advanced or metastatic melanoma; experiment: Tumor sample / tumor microenvironment biomarkers in solid tumors such as melanoma; format: in vivo, human
Protocol: A primary comparison is the density of specific cell phenotypes in the tumor microenvironment in the pre-treatment biopsy vs. the Week 4 and EOT biopsies. CD8^+ T cells/mm^−2 are measured in melanoma tumor parenchyma prior to treatment.

[3] = Phase 1 and 2a trials; cited from earlier work
[4] = tested on: melanoma, renal cell carcinoma, and ovarian cancer; conditions: murine models; cited from earlier work
in vivo = conditions: terminal half-life (T1/2)
[5] = tested on: unresectable or metastatic melanoma; conditions: Phase 3 trial, P<0.001; cited from earlier work
[6] = tested on: pancreatic adenocarcinoma; conditions: cited from earlier work
[7] = tested on: advanced clear-cell renal-cell carcinoma; conditions: cited from earlier work; for objective response rate: Phase 3, nivolumab 3 mg/kg iv every two weeks vs everolimus 10 mg orally daily, P<0.001
[8] = solid tumors, e.g. advanced or metastatic melanoma

Compound: NCCCCN(Cc1nc2ccccc2[nH]1)[C@H]1CCCc2cccnc21 [X4P-001]
- Patient Serum CXCL9 Levels, Post-X4P-001 Monotherapy (CXCL9; Table 1, three weeks single agent therapy): 836 pg/mL and 2260 pg/mL and 2530 pg/mL and 843 pg/mL and 2020 pg/mL and 1020 pg/mL and 1410 pg/mL and 766 pg/mL and 794 pg/mL and 1380 pg/mL and 425 pg/mL
- Patient Serum CXCL9 Levels, Post-X4P-001 Monotherapy (CXCL9; Table 1a (updated data, 16 patients)): 836 pg/mL and 2260 pg/mL and 2530 pg/mL and 843 pg/mL and 2020 pg/mL and 1020 pg/mL and 1410 pg/mL and 766 pg/mL and 1245 pg/mL and 769.5 pg/mL and 460.5 pg/mL and 1030 pg/mL and 1750 pg/mL and 794 pg/mL and 1380 pg/mL and 425 pg/mL
- Patient Serum CXCL10 Levels, Post-X4P-001 Monotherapy (CXCL10; Table 2, three weeks single agent therapy): 767 pg/mL and 146 pg/mL and 262 pg/mL and 101 pg/mL and 123 pg/mL and 384 pg/mL and 118 pg/mL and 174 pg/mL and 139 pg/mL and 331 pg/mL and 521 pg/mL
- Patient Serum CXCL10 Levels, Post-X4P-001 Monotherapy (CXCL10; Table 2a (updated data, 16 patients)): 767 pg/mL and 146 pg/mL (2×) and 262 pg/mL and 101 pg/mL and 123 pg/mL and 384 pg/mL and 118 pg/mL and 174 pg/mL and 272 pg/mL and 166 pg/mL and 350 pg/mL and 139 pg/mL and 331 pg/mL and 521 pg/mL
- serum CXCL9 and CXCL10 levels ([1]; following monotherapy, melanoma patients): generally increase following monotherapy
- levels of serum CXCL9 and CXCL10 ([1]; patients with solid tumors, e.g. advanced or metastatic melanoma): increases levels of serum CXCL9 and CXCL10
- levels of serum cytokine panel ([1]; serum): modulates levels of one or more of a panel of serum cytokines
- solubility (Solubility of X4P-001; aqueous buffer, pH range 3.0 to 8.0 (freely soluble)): > 100 mg/mL
- solubility in water (Solubility of X4P-001; water): only slightly soluble
- levels of Treg cells [2, 8]: without significantly increasing levels of Treg cells
- levels of macrophages in the tumor [2, 8]: without significantly modulating levels of macrophages in the tumor
- numbers of CD8+ T cells and/or CD4+ T cells in tumors [2, 8]: increases observed numbers of CD8^+ T cells and/or CD4^+ T cells
- IFN-γ gene signature ([2]; tumor): increases one or more of a panel of IFN-γ related genes
- PD-L1 expression ([2]; tumor samples and tumor microenvironment): increases PD-L1 expression in tumor samples and the tumor microenvironment
- CTL signature gene expression ([2]; tumor samples or tumor microenvironment): increases gene expression of one or more of a panel of cytotoxic T cell (CTL)-related genes
- pharmacodynamic activity, circulating white blood cells (WBCs) [3]: dose- and concentration-related changes in circulating white blood cells
- volume of distribution (VL) [3]: high volume of distribution
- anti-tumor activity, including decreased metastasis and increased overall survival [4]: significant anti-tumor activity
- half-life (in vivo): 12 to 24 h

Compound: ipilimumab: anti-CTLA-4 antibody
- objective response rate [5]: 12%

Compound: c1cc(CN2CCCNCCNCCCNCC2)ccc1CN1CCCNCCNCCCNCC1 [plerixafor, Plerixafor]
- anti-tumor activity, including decreased metastasis and increased overall survival [4]: significant anti-tumor activity
- tumor growth ([6]; in combination with anti-PD-L1): synergistically decreased tumor growth
- T-cell accumulation among cancer cells ([6]; murine pancreatic adenocarcinoma): induced rapid T-cell accumulation among the cancer cells

Compound: CO[C@H]1C[C@@H]2CC[C@@H](C)[C@@](O)(O2)C(=O)C(=O)N2CCCC[C@H]2C(=O)O[C@H]([C@H](C)C[C@@H]2CC[C@@H](OCCO)[C@H](OC)C2)CC(=O)[C@H](C)/C=C(\C)[C@@H](O)[C@@H](OC)C(=O)[C@H](C)C[C@H](C)/C=C/C=C/C=C/1C [everolimus]
- objective response rate [7]: 5%

Compound: pembrolizumab: humanized IgG4 kappa monoclonal antibody that blocks the interaction between PD-1 and its ligands
- objective response rate [5]: 33%

Compound: nivolumab: fully human IgG4 monoclonal antibody binding to the PD-1 receptor
- objective response rate [7]: 25%
- incidence of Grade 3 or 4 treatment-related adverse events ([7]; vs everolimus): lower incidence of Grade 3 or 4 treatment-related adverse events
- median overall survival ([7]; vs everolimus): longer median overall survival
